Measurements taken from ChEMBL document CHEMBL1122779, “Antiinflammatory agents. 3. Synthesis and pharmacological evaluation of 2-amino-3-benzoylphenylacetic acid and analogues” (J Med Chem, 1984).

Assays:
Mus musculus [1] = test: Oral analgesic activity was determined in mice by the acetylcholine-induced abdominal constriction assay upon ip administration of acetylcholine bromide 20 min following oral administration; type: functional; settings: Abdomen
Mus musculus [2] = test: Oral analgesic activity was determined in mice by the acetylcholine-induced abdominal constriction assay upon ip administration of acetylcholine bromide 5 hours following oral administration; type: functional; settings: Abdomen
Rattus norvegicus [3] = test: Percent change in average volume of pleural fluid at a dose 4 mg/kg of indomethacin and 5-h response is evaluated by Evans blue-carrageenan induced pleural effusion assay; type: functional
Rattus norvegicus [4] = test: Percent change in average volume of pleural fluid at a dose of 4.0 mg/kg and 5-h response by Evans blue-carrageenan induced pleural effusion assay.; type: functional
Rattus norvegicus [5] = test: Evaluated for chronic intestinal toxicity (multiple oral dose) in rats; type: organism-based; settings: in vivo
Rattus norvegicus [6] = species: Rattus norvegicus; test: Evaluated for acute potency in pleural effusion assay; type: functional
Rattus norvegicus [7] = species: Rattus norvegicus; test: Evaluated for chronic potency in adjuvant arthritis assay; type: functional
[8] = Chronic therapeutic index as ratio of potency in adjuvant-induced arthritis assay to that of potency in intestinal toxicity assay; settings: read-out: Chronic TI
[9] = Acute therapeutic index as ratio of potency in pleural effusion to that of potency in gastric toxicity assay; type: tissue-based; settings: Stomach; read-out: Acute TI
Rattus norvegicus [10] = test: Acute gastric toxicity (single oral dose) in male fasted rats; type: organism-based, Stomach; settings: in vivo
Cyclooxygenase = target: T1, Cyclooxygenase (Bos taurus, UniProt O62664+O62698)
T1 sequence (O62664 whole entry): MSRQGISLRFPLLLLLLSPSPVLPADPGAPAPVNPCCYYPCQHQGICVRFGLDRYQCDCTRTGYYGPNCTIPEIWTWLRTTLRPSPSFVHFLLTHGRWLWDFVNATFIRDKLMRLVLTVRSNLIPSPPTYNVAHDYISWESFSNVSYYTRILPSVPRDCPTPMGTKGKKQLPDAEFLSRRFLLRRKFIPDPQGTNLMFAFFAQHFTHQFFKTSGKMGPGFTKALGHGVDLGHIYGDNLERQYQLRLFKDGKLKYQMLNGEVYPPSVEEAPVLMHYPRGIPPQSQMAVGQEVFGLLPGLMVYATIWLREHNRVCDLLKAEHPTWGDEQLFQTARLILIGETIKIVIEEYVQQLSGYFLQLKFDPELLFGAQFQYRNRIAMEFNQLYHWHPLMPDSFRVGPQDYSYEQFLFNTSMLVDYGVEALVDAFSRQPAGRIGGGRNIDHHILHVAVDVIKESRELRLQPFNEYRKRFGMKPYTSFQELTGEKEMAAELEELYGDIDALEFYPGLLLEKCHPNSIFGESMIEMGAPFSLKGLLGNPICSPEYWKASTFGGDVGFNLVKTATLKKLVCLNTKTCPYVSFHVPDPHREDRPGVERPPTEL
T1 sequence (O62698 whole entry): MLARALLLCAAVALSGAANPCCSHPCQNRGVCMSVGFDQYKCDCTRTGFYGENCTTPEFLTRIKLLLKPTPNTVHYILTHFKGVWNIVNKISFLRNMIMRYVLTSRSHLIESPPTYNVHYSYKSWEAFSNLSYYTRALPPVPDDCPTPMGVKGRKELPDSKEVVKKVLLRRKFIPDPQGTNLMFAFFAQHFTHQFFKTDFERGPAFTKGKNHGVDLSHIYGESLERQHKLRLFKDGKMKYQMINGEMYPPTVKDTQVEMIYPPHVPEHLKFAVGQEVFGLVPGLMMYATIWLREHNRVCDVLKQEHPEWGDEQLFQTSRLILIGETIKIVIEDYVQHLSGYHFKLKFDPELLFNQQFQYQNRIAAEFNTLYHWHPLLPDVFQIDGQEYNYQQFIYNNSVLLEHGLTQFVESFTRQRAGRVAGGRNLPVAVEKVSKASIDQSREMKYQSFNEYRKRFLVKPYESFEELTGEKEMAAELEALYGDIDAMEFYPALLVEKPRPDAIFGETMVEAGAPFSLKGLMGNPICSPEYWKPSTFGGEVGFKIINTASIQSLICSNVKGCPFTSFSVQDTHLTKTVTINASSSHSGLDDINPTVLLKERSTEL
Description: Inhibition of prostaglandin G/H synthase obtained from bovine seminal vesicles.

Rattus norvegicus [11] = test: Percent change in avg. volume of pleural fluid at a dose of 0.16 mg/kg and 5-h response is evaluated by Evans blue-carrageenan induced pleural effusion assay
Rattus norvegicus [12] = test: Percent change in average volume of pleural fluid at a dose of 100 mg/kg and 5-h response by Evans blue-carrageenan induced pleural effusion assay.; type: functional
Rattus norvegicus [13] = test: Percent change in avg. volume of pleural fluid at a dose of 4.0 mg/kg and 5-h response is evaluated by Evans blue-carrageenan induced pleural effusion assay; type: functional
Rattus norvegicus [14] = test: Percent change in avg. volume of pleural fluid at a dose 4 mg/kg of indomethacin and 5-h response is evaluated by Evans blue-carrageenan induced pleural effusion assay; type: functional

Nc1c(CC(=O)[O-])cc(Cl)cc1C(=O)c1ccc(Cl)cc1.[Na+]
ED50 (Mus musculus [1]): 0.23 mg/kg
ED50 (Mus musculus [2]): 0.31 mg/kg
Change (Rattus norvegicus [3]): -32%
Change (Rattus norvegicus [4]): -41%
Intestinal toxicity (Rattus norvegicus [5]): 1.2
Potency (Rattus norvegicus [6]): 4.6
Potency (Rattus norvegicus [7]): 1.7
selectivity ratio [8]: 1.4
selectivity ratio [9]: 3.8
Gastric toxicity (Rattus norvegicus [10]): 1.2
IC50 (Cyclooxygenase): 0.3 µM
Change (Rattus norvegicus [11]): -18%

Nc1cc(C(=O)c2ccccc2)ccc1CC(=O)[O-].[Na+]
Change (Rattus norvegicus [12]): -2%
Change (Rattus norvegicus [13]): -31%

Nc1c(CC(=O)[O-])cc(Cl)cc1C(=O)c1ccc(I)cc1.[Na+]
ED50 (Mus musculus [1]): 0.24 mg/kg
ED50 (Mus musculus [2]): 0.24 mg/kg
Change (Rattus norvegicus [3]): -33%
Change (Rattus norvegicus [12]): -38%
Change (Rattus norvegicus [4]): -35%
Intestinal toxicity (Rattus norvegicus [5]): 2.2
Potency (Rattus norvegicus [6]): 3.8
Potency (Rattus norvegicus [7]): 5.5
selectivity ratio [8]: 2.5
selectivity ratio [9]: 1.1
Gastric toxicity (Rattus norvegicus [10]): 3.5
IC50 (Cyclooxygenase): 0.03 µM

Nc1c(CC(=O)[O-])cccc1C(=O)c1ccc(Cl)cc1Cl.[Na+]
ED50 (Mus musculus [1]): 0.21 mg/kg
ED50 (Mus musculus [2]): > 0.3 mg/kg
Change (Rattus norvegicus [3]): -33%
Change (Rattus norvegicus [12]): -41%
Change (Rattus norvegicus [4]): -37%
Intestinal toxicity (Rattus norvegicus [5]): 0.6
Potency (Rattus norvegicus [6]): 5.3
Potency (Rattus norvegicus [7]): 4.2
Gastric toxicity (Rattus norvegicus [10]): 1
IC50 (Cyclooxygenase): 0.6 µM
Change (Rattus norvegicus [11]): -16%

Cc1cc(CC(=O)[O-])c(N)c(C(=O)c2ccc(Cl)cc2)c1.[Na+]
ED50 (Mus musculus [1]): 0.78 mg/kg
ED50 (Mus musculus [2]): 0.65 mg/kg
Change (Rattus norvegicus [3]): -35%
Change (Rattus norvegicus [12]): -38%
Change (Rattus norvegicus [4]): -32%
Intestinal toxicity (Rattus norvegicus [5]): 0.4
Potency (Rattus norvegicus [6]): 1.7
Potency (Rattus norvegicus [7]): 0.63
Gastric toxicity (Rattus norvegicus [10]): 0.27
IC50 (Cyclooxygenase): 0.7 µM
Change (Rattus norvegicus [11]): 0%

Nc1c(CC(=O)[O-])cc(Cl)cc1C(=O)c1ccc(Br)cc1.[Na+]
ED50 (Mus musculus [1]): 0.05 mg/kg
ED50 (Mus musculus [2]): 0.13 mg/kg
Change (Rattus norvegicus [3]): -40%
Change (Rattus norvegicus [12]): -38%
Change (Rattus norvegicus [4]): -41%
Intestinal toxicity (Rattus norvegicus [5]): 2.9
Potency (Rattus norvegicus [6]): 15
Potency (Rattus norvegicus [7]): 4.6
selectivity ratio [8]: 1.6
selectivity ratio [9]: 10
Gastric toxicity (Rattus norvegicus [10]): 1.5
IC50 (Cyclooxygenase): 0.02 µM

Nc1ccc(CC(=O)O)cc1C(=O)c1ccccc1
Change (Rattus norvegicus [14]): -31%
Change (Rattus norvegicus [4]): -4%

Nc1c(CC(=O)[O-])cccc1C(=O)c1ccc(Cl)cc1.[Na+]
ED50 (Mus musculus [1]): 0.1 mg/kg
ED50 (Mus musculus [2]): 0.93 mg/kg
Change (Rattus norvegicus [3]): -33%
Change (Rattus norvegicus [12]): -38%
Change (Rattus norvegicus [4]): -29%
Intestinal toxicity (Rattus norvegicus [5]): 1.4
Potency (Rattus norvegicus [6]): 3.8
Potency (Rattus norvegicus [7]): 2.2
selectivity ratio [8]: 1.6
selectivity ratio [9]: 4.3
Gastric toxicity (Rattus norvegicus [10]): 0.9
IC50 (Cyclooxygenase): 0.3 µM
Change (Rattus norvegicus [11]): -16%

Nc1ccc(C(=O)c2ccccc2)cc1CC(=O)O
Change (Rattus norvegicus [3]): -43%
Change (Rattus norvegicus [13]): 11%

Nc1c(CC(=O)[O-])cc(F)cc1C(=O)c1ccc(Br)cc1.[Na+]
ED50 (Mus musculus [1]): 0.18 mg/kg
ED50 (Mus musculus [2]): 0.29 mg/kg
Change (Rattus norvegicus [3]): -25%
Change (Rattus norvegicus [12]): -28%
Change (Rattus norvegicus [4]): -28%
Intestinal toxicity (Rattus norvegicus [5]): 1.9
Potency (Rattus norvegicus [6]): 8.4
Potency (Rattus norvegicus [7]): 2.2
selectivity ratio [8]: 1.2
selectivity ratio [9]: 4.9
Gastric toxicity (Rattus norvegicus [10]): 1.7
IC50 (Cyclooxygenase): 0.04 µM

Nc1c(CC(=O)[O-])cccc1C(=O)c1ccc(I)cc1.[Na+]
ED50 (Mus musculus [1]): 0.13 mg/kg
ED50 (Mus musculus [2]): 0.18 mg/kg
Change (Rattus norvegicus [3]): -32%
Change (Rattus norvegicus [12]): -44%
Change (Rattus norvegicus [4]): -31%
Intestinal toxicity (Rattus norvegicus [5]): 3.3
Potency (Rattus norvegicus [6]): 6.9
Potency (Rattus norvegicus [7]): 8.1
selectivity ratio [8]: 2.5
selectivity ratio [9]: 1.3
Gastric toxicity (Rattus norvegicus [10]): 5.3
IC50 (Cyclooxygenase): 0.07 µM
Change (Rattus norvegicus [11]): -17%

Nc1c(CC(=O)[O-])cc(F)cc1C(=O)c1ccc(Cl)cc1.[Na+]
ED50 (Mus musculus [1]): 0.28 mg/kg
ED50 (Mus musculus [2]): 1.4 mg/kg
Change (Rattus norvegicus [3]): -34%
Change (Rattus norvegicus [4]): -37%
Intestinal toxicity (Rattus norvegicus [5]): 0.5
Potency (Rattus norvegicus [6]): 3.6
Potency (Rattus norvegicus [7]): 1.9
Gastric toxicity (Rattus norvegicus [10]): 1.1
IC50 (Cyclooxygenase): 0.1 µM
Change (Rattus norvegicus [11]): -15%

Nc1cccc(C(=O)c2ccccc2)c1CC(=O)[O-].[Na+]
Change (Rattus norvegicus [14]): -35%
Change (Rattus norvegicus [4]): -2%

COc1cc(CC(=O)[O-])c(N)c(C(=O)c2ccccc2)c1.[Na+]
Change (Rattus norvegicus [14]): -48%
Change (Rattus norvegicus [4]): -18%
IC50 (Cyclooxygenase): 5.4 µM

Nc1c(CC(=O)[O-])cccc1C(=O)c1ccccc1.[Na+] [AMFENAC SODIUM]
ED50 (Mus musculus [1]): 0.11 mg/kg
ED50 (Mus musculus [2]): > 3 mg/kg
Change (Rattus norvegicus [3]): -33%
Change (Rattus norvegicus [12]): -35%
Change (Rattus norvegicus [4]): -26%
Intestinal toxicity (Rattus norvegicus [5]): 0.4
Potency (Rattus norvegicus [6]): 0.7
Potency (Rattus norvegicus [7]): 1.1
Gastric toxicity (Rattus norvegicus [10]): 0.7
Change (Rattus norvegicus [11]): -13%

Nc1c(CC(=O)[O-])cccc1C(=O)c1ccc(Br)cc1.Nc1c(CC(=O)[O-])cccc1C(=O)c1ccc(Br)cc1.O.O.O.[Na+].[Na+] [BROMFENAC SODIUM]
ED50 (Mus musculus [1]): 0.07 mg/kg
ED50 (Mus musculus [2]): 0.13 mg/kg
Change (Rattus norvegicus [3]): -41%
Change (Rattus norvegicus [4]): -43%
Intestinal toxicity (Rattus norvegicus [5]): 1.8
Potency (Rattus norvegicus [6]): 7.5
Potency (Rattus norvegicus [7]): 5.8
selectivity ratio [8]: 3.2
selectivity ratio [9]: 5.4
Gastric toxicity (Rattus norvegicus [10]): 1.4
IC50 (Cyclooxygenase): 0.08 µM
Change (Rattus norvegicus [11]): -27%

COc1ccc2c(c1)c(CC(=O)O)c(C)n2C(=O)c1ccc(Cl)cc1 [INDOMETHACIN]
ED50 (Mus musculus [1]): 0.22 mg/kg
ED50 (Mus musculus [2]): 0.22 mg/kg
Change (Rattus norvegicus [4]): -33%
Intestinal toxicity (Rattus norvegicus [5]): 1
Potency (Rattus norvegicus [6]): 1
Potency (Rattus norvegicus [7]): 1
Gastric toxicity (Rattus norvegicus [10]): 1
Change (Rattus norvegicus [11]): -7%

Cc1cc(CC(=O)O)n(C)c1C(=O)c1ccc(Cl)cc1 [ZOMEPIRAC]
ED50 (Mus musculus [1]): 0.21 mg/kg
ED50 (Mus musculus [2]): 0.59 mg/kg
Intestinal toxicity (Rattus norvegicus [5]): 0.63
Potency (Rattus norvegicus [6]): 0.78
Potency (Rattus norvegicus [7]): 0.67
selectivity ratio [8]: 1.1
selectivity ratio [9]: 3.1
Gastric toxicity (Rattus norvegicus [10]): 0.25
IC50 (Cyclooxygenase): 15 µM
